Assay results as given in US20110039905A1, “BENZIMIDAZOLE DERIVATIVES AS CALCIUM CHANNEL BLOCKERS” (priority 2008, published 2011).

How the values were obtained:
[1] = target: T1, human Cav1.2 channel (Homo sapiens, UniProt Q13936); experiment: In vitro assay L channel (FLIPR, KCl-induced calcium fluorescence); format: cell-based; conditions: HEK293 cells expressing human Cav1.2 with β-2a and α2δ-1; 20 mM KCl depolarization; range stated for the group; read-out: IC50 (L channel antagonistic activity)
T1 construct: expressed in transfected cells; host or cells: HEK293
Method: The L channel antagonistic activity (IC50 values) of the compounds of formula (I) is determined in accordance with the following experimental method.
Human embryonic kidney (HEK293) cells expressing the human Cav1.2 channel in addition to the auxiliary subunits β-2a and α2δ-1, are grown in culture medium (DMEM containing 10% heat-inactivated fetal calf serum (FCS), 100 U/ml penicillin, 100 μg/ml streptomycin, 100 μg/ml G418, 40 μg/ml zeocin and 100 μg/ml hygromycin). The cells are seeded at 20,000 cells/well into 384-well black clear bottom sterile plates (poly-L-lysine-coated, Becton Dickinson). The seeded plates are incubated overnight at 37° C. in 5% CO2. The KCl solution is prepared as 80 mM stock solution in assay buffer (HBSS containing 0.1% BSA, 20 mM HEPES, 0.375 g/l NaHCO3, adjusted to pH 7.4 with NaOH) for use in the assay at a final concentration of 20 mM. Antagonists are prepared as 10 mM stock solutions in DMSO, then diluted in 384w plates first in DMSO, then in assay buffer to obtain 3× stocks. On the day of the assay, 25 μl of staining buffer (HBSS containing 20 mM HEPES, 0.375 g/l NaHCO3, and 30 μM of the fluorescent calcium indicator fluo-4 AM (1 mM stock solution in DMSO, containing 10% pluronic) is added to each well of the seeded plate. The 384-well cell-plates are incubated for 60 min at 37° C. in 5% CO2 followed by washing with […] using assay buffer leaving […] of this buffer for equilibration at room temperature (30-60 min). Within the Fluorescent Imaging Plate Reader (FLIPR, Molecular Devices), antagonists are added to the plate in a volume of 25 μl/well, incubated for 3 min and finally 25 μl/well of KCl solution is added for cellular depolarization. Fluorescence is measured for each well at 2 second intervals for 8 minutes, and the area under the curve of each fluorescence peak is compared to the area of the fluorescence peak induced by 20 mM KCl with vehicle in place of antagonist. […]

[2] = tested on: isolated mouse hearts; experiment: Effect on isolated hearts according to the Langendorff method; conditions: read-out: EC50 (Langendorff experiment)
Method: The compounds were tested for their potential to reduce blood pressure and their effect on the contractility of the heart muscle. EC50 values on isolated mouse hearts were determined according to Literature (Doring H J., The isolated perfused heart according to Langendorff technique—function—application, Physiol. Bohemoslov. 1990, 39(6), 481-504; Kligfield P, Horner H, Brachfeld N., A model of graded ischemia in the isolated perfused rat heart, J. Appl. Physiol. 1976 June, 40(6), 1004-8).

[3] = tested on: human Cav3.1 Cav3.2 or Cav3.3 channel; experiment: In vitro assay T channel (FLIPR, Ca2+-induced calcium fluorescence); format: cell-based; conditions: HEK293 cells expressing human Cav3.1, Cav3.2 or Cav3.3; 10 mM Ca2+; subtype not specified in Table 1; read-out: IC50 (T channel antagonistic activity)
Method: The T channel antagonistic activity (IC50 values) of the compounds of formula (I) is determined in accordance with the following experimental method and data are shown in Table 1.
Human embryonic kidney (HEK293) cells expressing the human Cav3.1 Cav3.2 or Cav3.3 channel, respectively, are grown in culture medium (DMEM containing 10% heat-inactivated fetal calf serum (FCS), 100 U/ml penicillin, 100 μg/ml streptomycin and 1 mg/ml G418). The cells are seeded at 20,000 cells/well into 384-well black clear bottom sterile plates (poly-L-lysine-coated, Becton Dickinson). The seeded plates are incubated overnight at 37° C. in 5% CO2. […] On the day of the assay, 25 μl of staining buffer (HBSS containing 20 mM HEPES, 0.375 g/l NaHCO3 and 30 μM of the fluorescent calcium indicator fluo-4 AM (1 mM stock solution in DMSO, containing 10% pluronic) is added to each well of the seeded plate. The 384-well cell-plates are incubated for 60 min at 37° C. in 5% CO2 followed by washing with […] using HBSS containing 0.1% BSA, 20 mM HEPES, 0.375 g/l NaHCO3, leaving […] of this buffer for equilibration at room temperature (30-60 min). Within the Fluorescent Imaging Plate Reader (FLIPR, Molecular Devices), antagonists are added to the plate in a volume of […], incubated for 3 min, and finally […] of Ca^2+solution is added. […]

T1 sequence (Q13936 whole entry): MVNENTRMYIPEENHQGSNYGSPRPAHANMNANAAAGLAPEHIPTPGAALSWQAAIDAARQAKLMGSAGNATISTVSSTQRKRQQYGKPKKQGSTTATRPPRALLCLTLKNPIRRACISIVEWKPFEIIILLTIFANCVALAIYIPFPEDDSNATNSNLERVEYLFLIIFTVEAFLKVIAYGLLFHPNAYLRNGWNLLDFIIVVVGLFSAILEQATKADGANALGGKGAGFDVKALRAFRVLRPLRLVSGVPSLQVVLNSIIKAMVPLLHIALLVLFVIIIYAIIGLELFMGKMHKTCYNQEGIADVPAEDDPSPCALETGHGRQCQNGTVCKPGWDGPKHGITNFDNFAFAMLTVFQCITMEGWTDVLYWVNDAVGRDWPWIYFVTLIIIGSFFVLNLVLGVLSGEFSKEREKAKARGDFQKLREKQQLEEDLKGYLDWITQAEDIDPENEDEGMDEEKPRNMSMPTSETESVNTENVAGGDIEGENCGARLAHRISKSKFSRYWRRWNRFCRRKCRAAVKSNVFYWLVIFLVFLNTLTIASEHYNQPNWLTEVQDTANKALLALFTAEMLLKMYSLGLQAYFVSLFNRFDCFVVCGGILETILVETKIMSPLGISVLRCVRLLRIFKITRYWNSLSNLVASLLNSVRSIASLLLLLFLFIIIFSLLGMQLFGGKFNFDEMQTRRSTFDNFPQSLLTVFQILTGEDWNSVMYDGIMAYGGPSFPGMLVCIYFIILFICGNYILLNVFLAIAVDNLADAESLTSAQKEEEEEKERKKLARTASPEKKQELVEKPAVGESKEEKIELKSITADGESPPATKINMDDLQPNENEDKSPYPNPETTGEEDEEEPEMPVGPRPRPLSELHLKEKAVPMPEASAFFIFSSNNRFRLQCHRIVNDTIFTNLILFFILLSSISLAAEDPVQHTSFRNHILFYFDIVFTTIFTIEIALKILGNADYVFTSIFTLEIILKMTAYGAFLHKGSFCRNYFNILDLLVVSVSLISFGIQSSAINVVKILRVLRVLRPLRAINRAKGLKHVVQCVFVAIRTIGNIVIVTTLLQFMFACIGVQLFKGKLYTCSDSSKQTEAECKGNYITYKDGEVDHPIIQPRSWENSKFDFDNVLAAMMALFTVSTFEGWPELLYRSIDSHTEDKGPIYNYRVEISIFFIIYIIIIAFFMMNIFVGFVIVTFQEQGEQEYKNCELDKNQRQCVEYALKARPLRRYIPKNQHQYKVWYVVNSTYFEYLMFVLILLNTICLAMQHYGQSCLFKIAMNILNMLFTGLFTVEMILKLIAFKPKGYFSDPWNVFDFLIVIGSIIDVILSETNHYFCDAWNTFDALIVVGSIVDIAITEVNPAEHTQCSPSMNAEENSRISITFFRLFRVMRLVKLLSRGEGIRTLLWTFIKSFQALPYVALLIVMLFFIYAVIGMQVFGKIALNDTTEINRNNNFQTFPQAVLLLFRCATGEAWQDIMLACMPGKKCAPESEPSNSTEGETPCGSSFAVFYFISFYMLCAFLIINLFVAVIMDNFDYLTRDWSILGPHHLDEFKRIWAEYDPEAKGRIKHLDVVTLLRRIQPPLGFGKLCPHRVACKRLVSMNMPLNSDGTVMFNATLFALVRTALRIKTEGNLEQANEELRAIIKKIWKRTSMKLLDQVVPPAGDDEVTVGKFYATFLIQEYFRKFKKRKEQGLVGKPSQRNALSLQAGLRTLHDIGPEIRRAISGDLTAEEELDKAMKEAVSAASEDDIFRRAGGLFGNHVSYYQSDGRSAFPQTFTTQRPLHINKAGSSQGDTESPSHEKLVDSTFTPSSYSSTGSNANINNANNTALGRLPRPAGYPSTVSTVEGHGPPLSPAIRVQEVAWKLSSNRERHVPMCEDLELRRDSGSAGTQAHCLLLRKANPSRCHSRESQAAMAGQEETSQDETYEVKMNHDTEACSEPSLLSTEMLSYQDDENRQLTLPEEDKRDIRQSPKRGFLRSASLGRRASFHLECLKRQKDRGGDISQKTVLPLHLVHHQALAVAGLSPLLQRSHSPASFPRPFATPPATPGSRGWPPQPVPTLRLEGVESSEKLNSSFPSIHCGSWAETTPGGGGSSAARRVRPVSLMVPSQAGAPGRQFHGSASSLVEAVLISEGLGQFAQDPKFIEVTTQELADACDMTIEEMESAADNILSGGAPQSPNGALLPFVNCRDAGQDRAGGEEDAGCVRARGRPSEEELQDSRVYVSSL

Question: What does the source list for COc1ccc(OC)c2[nH]c(CCCN(C)CC[C@]3(OC(=O)C(C)C)C[C@H]4CC[C@@H]3C=C4c3ccccc3)nc12 (racemic) [Example 1A, rac-Isobutyric acid (1R*,2R*,4R*)-2-(2-{[3-(4,7-dimethoxy-1H-benzoimidazol-2-yl)-propyl]-methyl-amino}-ethyl)-5-phenyl-bicyclo[2.2.2]oct-5-en-2-yl ester]?
Answer: IC50 [1]: 156 to 439 nM; EC50 [2]: 5 nM

Question: For COc1ccc(OC)c2[nH]c(CCCN(C)CC[C@]3(OC(=O)C(C)C)C[C@H]4CCC[C@@H]3C=C4c3ccccc3)nc12 (racemic) [Example 4A, rac-Isobutyric acid (1R*,5R*,6R*)-6-(2-{[3-(4,7-dimethoxy-1H-benzoimidazol-2-yl)-propyl]-methyl-amino}-ethyl)-8-phenyl-bicyclo[3.2.2]non-8-en-6-yl ester], which IC50 [1] is on record?
Answer: 156 to 439 nM

Question: For COc1ccc(OC)c2[nH]c(CCCN(C)CCC3(OC(=O)C(C)C)CC4CCC3C=C4c3ccccc3)nc12 (single isomer, unassigned) [Example 2A, Isobutyric acid (1R,2R,4R)-2-(2-{[3-(4,7-dimethoxy-1H-benzoimidazol-2-yl)-propyl]-methyl-amino}-ethyl)-5-phenyl-bicyclo[2.2.2]oct-5-en-2-yl ester or isobutyric acid (1S,2S,4S)-2-(2-{[3-(4,7-dimethoxy-1H-benzoimidazol-2-yl)-propyl]-methyl-amino}-ethyl)-5-phenyl-bicyclo[2.2.2]oct-5-en-2-yl ester], which IC50 [3] is on record?
Answer: 778 nM

Question: What about the IC50 [1] of the same compound?
Answer: 156 to 439 nM

Question: How did the IC50 [3] turn out when COc1ccc(OC)c2[nH]c(CCCN(C)CCC3(OC(=O)C(C)C)CC4CCC3C=C4c3ccccc3)nc12 (single isomer, unassigned) [Example 3A, Isobutyric acid (1R,2R,4R)-2-(2-{[3-(4,7-dimethoxy-1H-benzoimidazol-2-yl)-propyl]-methyl-amino}-ethyl)-5-phenyl-bicyclo[2.2.2]oct-5-en-2-yl ester or isobutyric acid (1S,2S,4S)-2-(2-{[3-(4,7-dimethoxy-1H-benzoimidazol-2-yl)-propyl]-methyl-amino}-ethyl)-5-phenyl-bicyclo[2.2.2]oct-5-en-2-yl ester] was run?
Answer: 793 nM
